Patent US5972939A, “Cyclopentene derivatives useful as antagonists of the motilin receptor” (Ortho-McNeil Pharmaceutical, Inc., priority 1998, dated 1999)

Biological target: T1, motilin receptors located on the colon of mature rabbits (Oryctolagus cuniculus, UniProt G1T803)
T1 construct: The colon from mature New Zealand rabbits was removed, dissected free from the mucosa and serosa layers, and diced into small pieces; from tissue; host or cells: colon smooth muscle of mature New Zealand rabbits, crude membrane homogenate
Experiment: competition with radiolabeled (125I) porcine motilin for the motilin receptors of rabbit colon
Assay type: binding
Settings: @ 0.1 μM
Procedure: The compounds of the invention were tested for their ability to compete with radiolabeled motilin (porcine) for the motilin receptors located on the colon of mature rabbits. The colon from mature New Zealand rabbits was removed, dissected free from the mucosa and serosa layers, and diced into small pieces. […] The homogenate was centrifuged at 1000×g for 15 min. and the supernatant discarded. The pellet was washed twice before being suspended in homogenizing buffer. This crude homogenate is then passed first through a 19 gauge needle then a 23 gauge needle to further suspend the material and stored as -80° C. […] After 30 min, at 30° C., the material was cooled on ice and centrifuged at 13,000×g for 1 minute. The pellet was washed with 1 mL 0.9% saline and centrifuged at 13,000×g for 15 seconds. The pellet was washed again with cold saline and the supernatant was removed. The pellet was counted in the gamma counter to determine the percentage of […] motilin and thereby the percent inhibition of the test compound. IC50s were determined for some compounds by standard techniques.

T1 sequence (G1T803 1-400): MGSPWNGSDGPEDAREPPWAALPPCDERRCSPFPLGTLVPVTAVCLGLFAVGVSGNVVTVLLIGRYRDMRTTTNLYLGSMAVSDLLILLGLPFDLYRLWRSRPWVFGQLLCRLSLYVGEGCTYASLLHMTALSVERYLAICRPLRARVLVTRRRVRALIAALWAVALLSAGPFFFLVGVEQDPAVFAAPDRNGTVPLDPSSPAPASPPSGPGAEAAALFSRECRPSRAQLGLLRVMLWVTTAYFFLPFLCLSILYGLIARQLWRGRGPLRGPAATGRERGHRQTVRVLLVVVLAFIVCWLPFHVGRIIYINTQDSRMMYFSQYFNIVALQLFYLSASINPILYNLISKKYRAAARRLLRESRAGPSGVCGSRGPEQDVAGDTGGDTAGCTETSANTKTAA

| SMILES | inhibition at 0.1 µM |
| --- | --- |
| O=C(c1ccc(C(F)(F)F)cc1)N(CC1=CC(Cc2ccccc2)(NC(=O)C(Cl)(Cl)Cl)CC1)c1cccc(OCCN2CCOCC2)c1 (stereo not shown) [Compound 104] | 29% |
| O=C(c1cc(F)cc(F)c1)N(CC1=CC(Cc2ccccc2)(NC(=O)C(Cl)(Cl)Cl)CC1)c1cccc(OCCN2CCOCC2)c1 (stereo not shown) [Compound 106] | 78% |

Next, values leading:

| inhibition at 0.1 µM | SMILES |
| --- | --- |
| 45% | O=C(NC1(Cc2ccccc2)C=C(CN(C(=S)Nc2ccccc2)c2cccc(OCCN3CCOCC3)c2)CC1)C(Cl)(Cl)Cl (stereo not shown) [Compound 11] |
| 54% | O=C(c1cccc(Br)c1)N(CC1=CC(Cc2ccccc2)(NC(=O)C(Cl)(Cl)Cl)CC1)c1cccc(OCCN2CCOCC2)c1 (stereo not shown) [Compound 101] |
| 61% | O=C(c1ccc(Cl)cc1)N(CC1=CC(Cc2ccccc2)(NC(=O)C(Cl)(Cl)Cl)CC1)c1cccc(OCCN2CCOCC2)c1 (stereo not shown) [Compound 102] |
| 52% | O=C(c1cccc(C(F)(F)F)c1)N(CC1=CC(Cc2ccccc2)(NC(=O)C(Cl)(Cl)Cl)CC1)c1cccc(OCCCN2CCOCC2)c1 (stereo not shown) [Compound 103] |
| 59% | O=C(c1ccc(I)cc1)N(CC1=CC(Cc2ccccc2)(NC(=O)C(Cl)(Cl)Cl)CC1)c1cccc(OCCN2CCOCC2)c1 (stereo not shown) [Compound 105] |

Same assay, conditions: @ 0.5 μM

| inhibition at 0.5 µM | SMILES |
| --- | --- |
| 65% | COc1cccc(C(=O)N(CC2=CC(Cc3ccccc3)(NC(=O)C(Cl)(Cl)Cl)CC2)c2cccc(OCCN3CCOCC3)c2)c1 (stereo not shown) [Compound 90] |

Same assay, conditions: @ 1.0 μM

| SMILES | inhibition at 1 µM |
| --- | --- |
| CC(=O)NC1(Cc2ccccc2)C=C(CN(C(=O)Nc2ccccc2)c2cccc(OCCN3CCOCC3)c2)CC1 (stereo not shown) [Compound 15, 3-Benzyl-3-acetylamino-1-(N-phenylaminocarbonyl)-N-[(3-(2-morpholinoethoxy)phenyl)amino]methylcyclopentene] | 40% |
| O=C(c1ccc(Br)cc1)N(CC1=CC(Cc2ccccc2)(NC(=O)C(Cl)(Cl)Cl)CC1)c1cc(OCCN2CCOCC2)ccc1Cl (stereo not shown) [Compound 38] | 59% |
| O=C(c1ccc(F)cc1)N(CC1=CC(Cc2ccccc2)(NC(=O)C(Cl)(Cl)Cl)CC1)c1cccc(CCCN2CCOCC2)c1 (stereo not shown) [Compound 98] | 17% |
| O=C(c1cc(C(F)(F)F)cc(C(F)(F)F)c1)N(CC1=CC(Cc2ccccc2)(NC(=O)C(Cl)(Cl)Cl)CC1)c1cccc(OCCN2CCOCC2)c1 (stereo not shown) [Compound 99] | 28% |
| CC(C)(C)c1ccc(C(=O)N(CC2=CC(Cc3ccccc3)(NC(=O)C(Cl)(Cl)Cl)CC2)c2cccc(OCCN3CCOCC3)c2)cc1 (stereo not shown) [Compound 110] | 19% |
| O=C(Nc1cccc(Br)c1)N(CC1=CC(Cc2ccccc2)(NC(=O)C(Cl)(Cl)Cl)CC1)c1cccc(OCCN2CCOCC2)c1 (stereo not shown) [Compound 112] | 51% |
| O=C(c1cccc(F)c1)N(CC1=CC(Cc2ccccc2)(NC(=O)C(Cl)(Cl)Cl)CC1)c1cc(OCCN2CCOCC2)ccc1Cl (stereo not shown) [Compound 113] | 59% |

The remaining lines, values ahead:

| inhibition at 1 µM | SMILES |
| --- | --- |
| 59% | O=C(Nc1ccccc1)N(CC1=CC(Cc2ccccc2)(NC(=O)C(Cl)(Cl)Cl)CC1)c1cccc(CCCN2CCOCC2)c1 (stereo not shown) [Compound 19] |
| 62% | CN(C)c1ccc(C(=O)N(CCc2cccc(OCCN3CCOCC3)c2)CC2=CC(Cc3ccccc3)(NC(=O)C(Cl)(Cl)Cl)CC2)cc1 (stereo not shown) [Compound 96] |
| 84% | O=C(c1cccs1)N(CC1=CC(Cc2ccccc2)(NC(=O)C(Cl)(Cl)Cl)CC1)c1cccc(OCCN2CCOCC2)c1 (stereo not shown) [Compound 108] |
| 51% | O=C(c1ccncc1)N(CC1=CC(Cc2ccccc2)(NC(=O)C(Cl)(Cl)Cl)CC1)c1cccc(OCCN2CCOCC2)c1 (stereo not shown) [Compound 111] |

Same assay, conditions: @ 2.0 μM

| inhibition at 2 µM | SMILES |
| --- | --- |
| 9% | O=C(Oc1cccc(CCN(CCN2CCOCC2)CC2=CC(Cc3ccccc3)(NC(=O)C(Cl)(Cl)Cl)CC2)c1)c1ccccc1 (stereo not shown) [Compound 85] |
| 22% | COc1ccc(CCN(CCN2CCOCC2)CC2=CC(Cc3ccccc3)(NC(=O)C(Cl)(Cl)Cl)CC2)cc1OC(=O)c1ccccc1 (stereo not shown) [Compound 95] |

| SMILES | inhibition at 2 µM |
| --- | --- |
| CN(C)CCSc1ccc(N(CC2=CC(Cc3ccccc3)(NC(=O)C(Cl)(Cl)Cl)CC2)C(=O)c2ccccc2)cc1 (stereo not shown) [Compound 86] | 49% |

Same assay, conditions: @ 5.0 μM

| inhibition at 5 µM | SMILES |
| --- | --- |
| 26% | COc1ccc(NC(=O)N(CC2=CC(Cc3ccccc3)(NC(=O)C(Cl)(Cl)Cl)CC2)c2cccc(OCCN3CCOCC3)c2)cc1 (stereo not shown) [Compound 89] |

Same assay, conditions: @ 10 μM

| SMILES | inhibition at 10 µM |
| --- | --- |
| O=C(NC1(Cc2ccccc2)C=C(CNc2cccc(OCCN3CCOCC3)c2)CC1)C(Cl)(Cl)Cl (stereo not shown) [Compound 6] | 37% |
| O=C(Nc1ccccc1)N(CC1=CC(Cc2ccccc2)(NC(=O)C(Cl)(Cl)Cl)CC1)c1cccc(SCCN2CCOCC2)c1 (stereo not shown) [Compound 22, 3-Benzyl-3-trichloroacetylamino-1-(N-phenylaminocarbonyl)-N-[(3-(2-morpholinoethyl)phenyl)thio]methylcyclopentene] | 83% |
| COc1ccc(N(CCN2CCOCC2)CC2=CC(Cc3ccccc3)(NC(=O)C(Cl)(Cl)Cl)CC2)cc1OCCN1CCOCC1 (stereo not shown) [Compound 40] | 27% |
| O=C(c1ccccc1)N(CCc1cccc(OCCN2CCOCC2)c1)CC1=CC(Cc2ccccc2)(NC(=O)C(Cl)(Cl)Cl)CC1 (stereo not shown) [Compound 41] | 82% |
| CCOC(=O)COc1cccc(N(CC2=CC(Cc3ccccc3)(NC(=O)C(Cl)(Cl)Cl)CC2)C(=O)c2ccccc2)c1 (stereo not shown) [Compound 46] | 51% |
| O=C(NC1(Cc2ccccc2)C=C(CNc2ccc(O)cc2)CC1)C(Cl)(Cl)Cl (stereo not shown) [Compound 69] | 11% |
| CCN(CC)CCN(CC1=CC(Cc2ccccc2)(NC(=O)C(Cl)(Cl)Cl)CC1)c1ccccc1OCCN1CCOCC1 (stereo not shown) [Compound 70] | 80% |
| CCN(CC)CCN(CC1=CC(Cc2ccccc2)(NC(=O)C(Cl)(Cl)Cl)CC1)c1ccc(OCCN(C)C)cc1 (stereo not shown) [Compound 71] | 85% |
| CCN(CC)CCN(CC1=CC(Cc2ccccc2)(NC(=O)C(Cl)(Cl)Cl)CC1)c1ccccc1O (stereo not shown) [Compound 73] | 84% |
| CCN(CC)CCN(CC1=CC(Cc2ccccc2)(NC(=O)C(Cl)(Cl)Cl)CC1)c1ccc(O)cc1 (stereo not shown) [Compound 74] | 81% |
| Nc1cccc(NCC2=CC(Cc3ccccc3)(NC(=O)C(Cl)(Cl)Cl)CC2)c1 (stereo not shown) [Compound 75] | 41% |
| CCN(CC)CCN(CCc1ccc(O)cc1)CC1=CC(Cc2ccccc2)(NC(=O)C(Cl)(Cl)Cl)CC1 (stereo not shown) [Compound 76] | 84% |
| CCN(CC)CCSc1cccc(N(CC2=CC(Cc3ccccc3)(NC(=O)C(Cl)(Cl)Cl)CC2)C(=O)c2ccccc2)c1 (stereo not shown) [Compound 79] | 98% |
| O=C(c1ccc(F)cc1)N(CC1=CC(Cc2ccccc2)(NC(=O)C(Cl)(Cl)Cl)CC1)c1cccc(SCCN2CCOCC2)c1 (stereo not shown) [Compound 80] | 79% |
| O=C(NC1(Cc2ccccc2)C=C(CNCCc2cccc(SCCN3CCOCC3)c2)CC1)C(Cl)(Cl)Cl (stereo not shown) [Compound 81] | 81% |
| O=C(c1ccccc1)N(CC1=CC(Cc2ccccc2)(NC(=O)C(Cl)(Cl)Cl)CC1)c1cccc(SCCN2CCOCC2)c1 (stereo not shown) [Compound 82] | 80% |
| CCN(CC)CCOc1cccc(CN(CC2=CC(Cc3ccccc3)(NC(=O)C(Cl)(Cl)Cl)CC2)C(=O)c2ccccc2)c1 (stereo not shown) [Compound 83] | 100% |
| COc1ccc(C(=O)N(CC2=CC(Cc3ccccc3)(NC(=O)C(Cl)(Cl)Cl)CC2)c2cccc(SCCN3CCOCC3)c2)cc1 (stereo not shown) [Compound 84] | 59% |
| COc1ccc(NCC2=CC(Cc3ccccc3)(NC(=O)C(Cl)(Cl)Cl)CC2)cc1O (stereo not shown) [Compound 87] | 32% |
| COc1ccc(NCC2=CC(Cc3ccccc3)(NC(=O)C(Cl)(Cl)Cl)CC2)cc1OCCN1CCOCC1 (stereo not shown) [Compound 94] | 48% |

Now from value to molecule:

| inhibition at 10 µM | SMILES |
| --- | --- |
| 70% | O=C(c1ccccc1)N(CC1=CC(Cc2ccccc2)(NC(=O)C(Cl)(Cl)Cl)CC1)Cc1cccc(OCCN2CCOCC2)c1 (stereo not shown) [Compound 32] |
| 74% | COc1ccc(N(CC2=CC(Cc3ccccc3)(NC(=O)C(Cl)(Cl)Cl)CC2)C(=O)c2ccccc2)cc1OCCN1CCOCC1 (stereo not shown) [Compound 34] |
| 94% | O=C(NC1(Cc2ccccc2)C=C(CN(Cc2ccccc2)Cc2cccc(OCCN3CCOCC3)c2)CC1)C(Cl)(Cl)Cl (stereo not shown) [Compound 88] |
| 95% | CCN(CC)CCN(CCc1cccc(OCCN2CCOCC2)c1)CC1=CC(Cc2ccccc2)(NC(=O)C(Cl)(Cl)Cl)CC1 (stereo not shown) [Compound 92] |
| 62% | COc1ccc(N(CC2=CC(Cc3ccccc3)(NC(=O)C(Cl)(Cl)Cl)CC2)Cc2ccccc2)cc1OCCN1CCOCC1 (stereo not shown) [Compound 93] |

Same assay, conditions: @ 100 μM

| inhibition at 100 µM | SMILES |
| --- | --- |
| 52% | O=C(c1ccc(F)c(F)c1)N(CC1=CC(Cc2ccccc2)(NC(=O)C(Cl)(Cl)Cl)CC1)c1cc(OCCN2CCOCC2)ccc1Cl (stereo not shown) [Compound 114] |

Same assay, conditions: rabbit colon, 125I motilin; read-out: IC50

| IC50 | SMILES |
| --- | --- |
| 260 nM | O=C(c1ccc(Cl)c(Cl)c1)N(CC1=CC(Cc2ccccc2)(NC(=O)C(Cl)(Cl)Cl)CC1)c1cccc(OCCN2CCOCC2)c1 (stereo not shown) [Compound 97] |
| 1000 nM | O=C(c1c(F)c(F)c(F)c(F)c1F)N(CC1=CC(Cc2ccccc2)(NC(=O)C(Cl)(Cl)Cl)CC1)c1cccc(OCCN2CCOCC2)c1 (stereo not shown) [Compound 100] |
| 98 nM | N#Cc1ccc(C(=O)N(CC2=CC(Cc3ccccc3)(NC(=O)C(Cl)(Cl)Cl)CC2)c2cccc(OCCN3CCOCC3)c2)cc1 (stereo not shown) [Compound 109] |

Same assay, conditions: rabbit colon, 125I motilin; read-out: IC50 (unit inferred)

| IC50 | SMILES |
| --- | --- |
| 900 nM | CCN(CC)CCN(CC1=CC(Cc2ccccc2)(NC(=O)C(Cl)(Cl)Cl)CC1)c1ccccc1OCCN1CCOCC1 (stereo not shown) [Compound 72] |
| 800 nM | CCN(CC)CCOc1cccc(CN(CC2=CC(Cc3ccccc3)(NC(=O)C(Cl)(Cl)Cl)CC2)C2CCN(Cc3ccccc3)CC2)c1 (stereo not shown) [Compound 77] |
| 1030 nM | CC(=O)N(CC1=CC(Cc2ccccc2)(NC(=O)C(Cl)(Cl)Cl)CC1)c1cccc(OCCN2CCOCC2)c1 (stereo not shown) [Compound 78] |
